Legend:
[1] = biological target: T1, MAPK13 (unphosphorylated) (Homo sapiens, UniProt O15264); assay: Differential scanning fluorimetry; type: binding
T1 sequence (O15264 1-365): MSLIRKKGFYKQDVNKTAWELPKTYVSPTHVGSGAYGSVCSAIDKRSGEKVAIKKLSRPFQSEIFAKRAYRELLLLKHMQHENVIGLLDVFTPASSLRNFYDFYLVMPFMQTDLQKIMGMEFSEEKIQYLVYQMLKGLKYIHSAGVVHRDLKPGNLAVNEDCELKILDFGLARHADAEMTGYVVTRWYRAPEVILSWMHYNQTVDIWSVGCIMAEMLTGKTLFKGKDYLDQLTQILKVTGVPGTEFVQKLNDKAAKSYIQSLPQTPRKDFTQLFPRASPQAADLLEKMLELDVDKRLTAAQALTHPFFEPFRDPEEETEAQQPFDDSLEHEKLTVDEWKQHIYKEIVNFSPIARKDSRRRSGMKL

[2] = biological target: T2, activated (phosphorylated) MAPK13 (Homo sapiens, UniProt O15264); assay: MAPK13 kinase inhibition assay; type: biochemical; conditions: for IC50 (MAPK13): steady-state enzyme inhibition, 3 μM ATP, stated as range in words; for fold less potent (IC50) than compounds 58 and 61: MAPK13 IC50 comparison
T2 sequence (O15264 1-365): T1 sequence (O15264 1-365)

MAPK14 = MAPK14 (Homo sapiens, UniProt Q16539); assay: Differential scanning fluorimetry; type: binding
Sequence of MAPK14 (Q16539 whole entry, species assumed): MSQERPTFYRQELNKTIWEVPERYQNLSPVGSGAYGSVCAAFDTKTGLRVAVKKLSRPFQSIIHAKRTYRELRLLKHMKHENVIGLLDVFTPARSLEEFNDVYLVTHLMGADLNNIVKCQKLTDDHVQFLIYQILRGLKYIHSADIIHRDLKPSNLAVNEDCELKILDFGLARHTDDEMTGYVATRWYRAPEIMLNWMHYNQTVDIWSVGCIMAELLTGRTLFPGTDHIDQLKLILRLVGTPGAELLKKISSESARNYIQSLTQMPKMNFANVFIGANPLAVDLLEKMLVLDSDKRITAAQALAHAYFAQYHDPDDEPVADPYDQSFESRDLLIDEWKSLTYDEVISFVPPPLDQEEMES

MAPK13 = conditions: read-out: IC50 [MAPK13]; cited from earlier work

SMILES	Kd [1] [nM]	IC50 (MAPK13) [2]	ATm-MAPK14 (°C) (MAPK14)	fold less potent (IC50) than compounds 58 and 61 [2]	IC50 (MAPK13) [nM]
Cn1nc(C(C)(C)C)cc1NC(=O)Nc1ccc(Sc2ccncc2)cc1 [Compound 58, 1-(3-tert-butyl-1-methyl-1H-pyrazol-5-yl)-3-[4-(pyridin-4-ylsulfanyl)phenyl]urea]	1900 ± 300	nanomolar range	–	–	–
O=C(Nc1ccc(Oc2ccncc2)cc1)c1ccnc(N2CCOCC2)c1 [Compound 124]	–	–	−0.8± 0.3	over 800 fold	–
Cc1cn(-c2cccc(C(=O)Nc3ccc(Oc4ccncc4)cc3)c2)cn1 [Compound 117, 3-(4-methyl-1H-imidazol-1-yl)-N-[4-(pyridin-4-xyloxy)phenyl] benzamide]	–	micromolar range	–	over 800 fold	–

— publication PMC5011001 (Biochimica et biophysica acta, 2016)
